Laboratory results as given in PMC2898741 (Biochemistry, 2009).

What was measured:
[1] = biological target: T1, ribonuclease A (RNase) (Bos taurus, UniProt P61823); assay type: binding
T1 sequence (P61823 27-150): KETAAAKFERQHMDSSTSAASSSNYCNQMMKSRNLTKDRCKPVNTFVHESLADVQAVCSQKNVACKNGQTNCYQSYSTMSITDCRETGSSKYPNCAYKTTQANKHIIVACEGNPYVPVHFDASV

[2] = biological target: T2, riboflavin binding protein (RfBP) (Gallus gallus, UniProt P02752)
T2 sequence (P02752 18-238): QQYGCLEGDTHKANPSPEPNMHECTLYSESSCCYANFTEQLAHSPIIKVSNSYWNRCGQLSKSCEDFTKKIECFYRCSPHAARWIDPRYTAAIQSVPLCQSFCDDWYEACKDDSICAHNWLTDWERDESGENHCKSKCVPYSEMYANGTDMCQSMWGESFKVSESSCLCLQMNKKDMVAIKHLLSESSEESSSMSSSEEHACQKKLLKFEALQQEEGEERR

[3] = biological target: T2, riboflavin binding protein (RfBP); remark: listed apart in the source

SMILES	absorbance and fluorescence titration; DTNB protection [1]	absorbance (252 nm) and fluorescence titration; DTNB protection [2]	absorbance and fluorescence titration; stopped-flow; DTNB protection [3]
O[As](O)O [arsenite]	Figure 7A demonstrates the binding of arsenite to reduced bovine pancreatic RNase using absorbance and fluorescence quenching	PSAO and arsenite also bind to reduced RfBP with a strong fluorescence quenching	–
C[As](O)O [MMA]	–	–	PSAO and MMA bind almost quantitatively to reduced unfolded RfBP
